Data on 38 compounds can be found in patent publication US9422290B2, “Triazolopyridazine” (Boehringer Ingelheim International GmbH, priority 2012, dated 2016).

Each structure is given as a SMILES string.

For the assay, the target named is BRD4-BD1 (Homo sapiens (Human), UniProt O60885). Briefly: BRD4-H4 tetraacetylated peptide inhibition AlphaScreen. The class given is binding. As to conditions: 15 nM GST-BRD4-BD1 (aa 44-168), 15 nM biotinylated Acetyl-Histone H4 (Lys5, 8, 12, 16) peptide. The protocol: Compounds are diluted in serial dilution 1:5 in assay buffer from 10 mM stock in DMSO (100 μM start concentration) in white OptiPlate-384 (PerkinElmer). […] Subsequently, 6 μl of premixed AlphaLISA Glutathione Acceptor Beads and AlphaScreen Streptavidin Donor Beads from PerkinElmer (in assay buffer at a concentration of 10 μg/ml each) are added and the samples are incubated for 30 min at RT in the dark (shaking 300 rpm). Afterwards, the signal is measured in a PerkinElmer Envision HTS Multilabel Reader using the AlphaScreen protocol from PerkinElmer. […] Negative control values are entered as low basis value when using the software GraphPad Prism for calculations. Furthermore, a positive control (probe molecule JQ1+ with protein/peptide mix) is pipetted. Determination of IC50 values are carried out using GraphPad Prism 3.03 software (or updates thereof).

As usually defined, the IC50 is the concentration that gives 50% inhibition. Higher therefore signals weaker potency in that assay. In the case of `Cc1nnc2c(NC3CCN(C)CC3)cc(N(C)Cc3ccccc3)nn12` [Example I-1, N6-Benzyl-3,N6-dimethyl-N8-(1-methyl-piperidin-4-yl)-[1,2,4]triazolo[4,3-b]pyridazine-6,8-diamine], the half-inhibitory concentration (IC50) turned out to be 3 nM.

In turn, `Cc1nnc2c(NC3CCOCC3)cc(N(C)Cc3ccccc3)nn12` [Example I-2] yielded a 50% inhibitory concentration (IC50) of 83 nM.

With `Cc1nnc2c(N[C@H]3CCOC3)cc(N(C)Cc3ccccc3)nn12` [Example I-3], the concentration for half-maximal inhibition (IC50) came out at 67 nM.

`Cc1nnc2c(N[C@@H]3CCOC3)cc(N(C)Cc3ccccc3)nn12` [Example I-4] showed an IC50 of 25 nM.

`CNc1cc(N(C)Cc2ccccc2)nn2c(C)nnc12` [Example I-5]: the half-maximal inhibitory concentration (IC50) was 83 nM.

Consider `CNc1cc(N(C)Cc2ccc(F)cc2)nn2c(C)nnc12` [Example I-6], for which the IC50 was found to be 74 nM.

With `Cc1nnc2c(NC3CCN(C)CC3)cc(-c3cnn(C)c3Cc3ccccc3)nn12` [II-1, [6-(5-Benzyl-1-methyl-1H-pyrazol-4-yl)-3-methyl-[1,2,4]triazolo[4,3-b]pyridazin-8-yl]-(1-methyl-piperidin-4-yl)-amine], the IC50 is 10 nM.

Turning to `Cc1nnc2c(NC3CCN(C)CC3)cc(-c3ccnn3Cc3ccccc3)nn12` [II-2], the half-inhibitory concentration (IC50) was determined as 117 nM.

`Cc1nnc2c(NC3CCN(C)CC3)cc(-c3[nH]c4ccccc4c3Cc3ccccc3)nn12` [II-3]: the half-inhibitory concentration (IC50) stood at 3 nM.

For `Cc1nnc2c(NC3CCN(C)CC3)cc(-c3c(Cc4ccccc4)c4ccccc4n3C)nn12` [II-4], it took 37 nM to reach half-maximal inhibition (IC50).

`Cc1nnc2c(NC3CCN(C)CC3)cc(-c3cc4ccccc4n3Cc3ccccc3)nn12` [II-5, [6-(1-Benzyl-1H-indol-2-yl)-3-methyl-[1,2,4]triazolo[4,3-b]pyridazin-8-yl]-(1-methyl-piperidin-4-yl)-amine] yielded an IC50 of 105 nM.

With `COCCN1CCC(Nc2cc(-c3cnn(C)c3Oc3ccccc3)nn3c(C)nnc23)CC1` [II-6], 8 nM corresponded to half-maximal inhibition (IC50).

In the case of `Cc1nnc2c(NC3CCN(C)CC3)cc(-c3cnn(C)c3Oc3ccccc3)nn12` [II-7], the concentration for half-maximal inhibition (IC50) was 8 nM.

Compound `COCCN1CCC(Nc2cc(-c3cn(C)nc3Cc3ccccc3)nn3c(C)nnc23)CC1` [II-8] came in with an IC50 of 4 nM.

As for `Cc1nnc2c(NC3CCN(C)CC3)cc(-c3cn(C)nc3Cc3ccccc3)nn12` [II-9], the concentration for half-maximal inhibition (IC50) came to 3 nM.

`CNc1cc(-c2cn(C)nc2Cc2ccccc2)nn2c(C)nnc12` [II-10] yielded an IC50 of 38 nM.

The compound `Cc1cc(-c2cn(C)nc2Cc2ccccc2)nn2c(C)nnc12` [II-11] had an IC50 of 64 nM.

For `Cc1nnc2c(Cl)cc(-c3cn(C)nc3Cc3ccccc3)nn12` [II-12, 3-benzyl-4-{8-chloro-3-methyl-[1,2,4]triazolo[4,3-b]pyridazin-6-yl}-1-methyl-1H-pyrazole], inhibition was half-maximal at 51 nM (IC50).

For `CSc1cc(-c2cn(C)nc2Cc2ccccc2)nn2c(C)nnc12` [II-13], the half-inhibitory concentration (IC50) turned out to be 2000 nM.

The compound `CNc1cc(-c2cnn(C)c2Oc2ccccc2)nn2c(C)nnc12` [II-14] displayed an IC50 of 26 nM.

In turn, `CNc1cc(-c2cn(C)nc2Oc2ccccc2)nn2c(C)nnc12` [II-15] showed an IC50 of 29 nM.

`Cc1nnc2c(NC(C)C)cc(-c3cn(C(C)C)nc3Cc3ccccc3)nn12` [II-16] displayed a half-maximal inhibitory concentration (IC50) of 711 nM.

As for `Cc1nnc2c(NC(C)C)cc(-c3cnn(C)c3Oc3ccccc3)nn12` [II-17], 140 nM corresponded to half-maximal inhibition (IC50).

Regarding `Cc1nnc2c(NC(C)C)cc(-c3cn(C)nc3Oc3ccccc3)nn12` [II-18], it took 31 nM to reach half-maximal inhibition (IC50).

As for `Cc1nnc2c(NC(C)C)cc(-c3cn(C)nc3Cc3ccccc3)nn12` [II-19], the IC50 stood at 105 nM.

Compound `Cc1nnc2c(NC(C)C)cc(-c3cn(C)nc3Oc3ccccn3)nn12` [II-20] came in with an IC50 of 43 nM.

For `CNc1cc(-c2cn(C)nc2Oc2ccccn2)nn2c(C)nnc12` [II-21], inhibition was half-maximal at 72 nM (IC50).

`CC(=O)N1CCC(Nc2cc(N(C)Cc3ccccc3)nn3c(C)nnc23)CC1` [III-1, 1-{4-[6-(Benzyl-methyl-amino)-3-methyl-[1,2,4]triazolo[4,3-b]pyridazin-8-ylamino]-piperidin-1-yl}-ethanone] came in with an IC50 of 61 nM.

`CCN1CCC(Nc2cc(N(C)Cc3ccccc3)nn3c(C)nnc23)CC1` [III-2, N6-Benzyl-N8-(1-ethyl-piperidin-4-yl)-3,N6-dimethyl-[1,2,4]triazolo[4,3-b]pyridazine-6,8-diamine] had a 50% inhibitory concentration (IC50) of 3 nM.

`COCCN1CCC(Nc2cc(N(C)Cc3ccccc3)nn3c(C)nnc23)CC1` [III-3, N6-Benzyl-N8-[1-(2-methoxy-ethyl)-piperidin-4-yl]-3,N6-dimethyl-[1,2,4]triazolo[4,3-b]pyridazine-6,8-diamine] had a half-maximal inhibitory concentration (IC50) of 3 nM.

Regarding `Cc1nnc2c(NC3CCN(C=O)CC3)cc(N(C)Cc3ccccc3)nn12` [III-4], the midpoint of inhibition, the IC50, lay at 40 nM.

In turn, `Cc1nnc2c(NC3CCN(S(=O)(=O)CCCN(C)C)CC3)cc(N(C)Cc3ccccc3)nn12` [III-5] gave a 50% inhibitory concentration (IC50) of 37 nM.

Consider `Cc1nnc2c(NC3CCN(S(=O)(=O)C4CCNC4)CC3)cc(N(C)Cc3ccccc3)nn12` (centres unmarked) [III-6], for which the IC50 was 33 nM.

For `Cc1nnc2c(NC3CCN(S(=O)(=O)C4CCNCC4)CC3)cc(N(C)Cc3ccccc3)nn12` [III-7], the 50% inhibitory concentration (IC50) is 57 nM.

Compound `Cc1nnc2c(NC3CCN(S(=O)(=O)CCN)CC3)cc(N(C)Cc3ccccc3)nn12` [III-8] registered a half-inhibitory concentration (IC50) of 32 nM.

Turning to `Cc1nnc2c(NC3CCN(S(=O)(=O)C4CCN(C)CC4)CC3)cc(N(C)Cc3ccccc3)nn12` [III-9], the IC50 was 40 nM.

On to `Cc1nnc2c(NC3CCN(S(=O)(=O)C4CCN(C)C4)CC3)cc(N(C)Cc3ccccc3)nn12` (centres unmarked) [III-10], for which the IC50 is 44 nM.

Compound `Cc1nnc2c(NC3CCN(S(=O)(=O)CCN(C)C)CC3)cc(N(C)Cc3ccccc3)nn12` [III-11] gave a half-maximal inhibitory concentration (IC50) of 39 nM.
